Data as given in patent publication US7749955B2, “Separation of polypeptides comprising a racemized amino acid” (Novo Nordisk A/S, priority 2003, dated 2010).

Assay: isoelectric pH of the peptide (isoelectric precipitation)
Assay type: physicochemical
Conditions: pH at which the peptide was precipitated after chromatography
From the text: Arg^34GLP-1(7-37) was expressed in yeast (S. cerevisiae) by conventional recombinant technology as described elsewhere (WO 98/08871). Arg^34GLP-1(7-37) in the fermentation broth was then purified by conventional reversed phase chromatography and subsequently precipitated at the isoelectric pH of the peptide, i.e. at pH 5.4. The precipitate was isolated by centrifugation. Following another RP-LC purification step and isoelectric precipitation, the Arg^34GLP-1(7-37) peptide was acylated as decribed in WO 00/55119 to give the GLP-1 derivative Arg^34Lys^26N^ε(γ-Glu(N^α-hexadecanoyl))GLP-1(7-37).
L17K, K30R-GLP2(1-33) was expressed in yeast (S. cerevisiae) by conventional recombinant technology in a similar manner as described in WO 98/08871 for GLP-1 peptides. L17K, K30R-GLP2(1-33) in the fermentation broth was then purified by conventional aniaon exchange and reversed phase chromatography and subsequently precipitated at the isoelectric pH of the peptide, i.e. at pH 4. The precipitate was isolated by centrifugation. D-His-L17K, K30R-GLP2(1-33) was prepared by solid phase synthesis.

Substance	isoelectric pH of the peptide
Arg^34GLP-1(7-37)	5.4 pH
L17K, K30R-GLP2(1-33) (HADGSFSDEMNTILDNKAARDFINWLIQTRITD; Glucagon-like peptide 2; UniProt P01275 146-178, looked up, variant L17K K30R) [GLP-2 analogue expressed in yeast]	4 pH
